Molecular target: T1, human CA-II (Homo sapiens, UniProt P00918)
T1 construct: purchased Sigma-Aldrich C6165
Assay: Carbonic Anhydrase-II (CA-II) Fluorimetric Assay-IC50 Determination
Assay type: biochemical
Conditions: for inhibition at 0.1 µM: at 100 nM (c7); for inhibition at 0.1 µM / inhibition at 0.01 µM: read-out: CA-II % inhibition at concentration of column 7; for IC50: given instead of Kd (ND), read-out: CA-II IC50; for inhibition at 0.01 µM: at 10 nM (c7)
Method: Carbonic Anhydrase-II (CA-II) Fluorimetric Assay-IC50 Determination
Compounds were diluted in DMSO at the concentration of 1 mM, then 50 μM and transferred to a 96-well plate for further dilutions (1:3 dilution, 11 points) in duplicate. Highest final concentration of compound in this CA-II Fluorimetric assay is 1 μM. Assays were conducted in a final volume of 100 μL in 50 mM Tris/HCl (pH 7.6), 100 mM Na2SO4 and 0.005% Tween-20 in a 96-well black assay plate. Fluorescein diacetate was used as the substrate. Enzyme inhibition was determined by pipetting 8 μL of human CA-II (5 nM, from Sigma-Aldrich, product #: C6165) into assay plate contained 2 μL of compound and 2 μL of substrate (10 μM) in 88 μL of assay buffer. The rate of the hydrolysis of fluorescein diacetate were measured spectrophometrically at 488 nm (excitation), 538 nm (emission) and 530 nm (cutoff) using a Molecular Devices SpectraMax M2 fluorescence reader at 25° C.

Structure (SMILES)	inhibition at 0.1 µM [%]	IC50 [nM]	inhibition at 0.01 µM [%]
NS(=O)(=O)c1ccc(-n2nc(C(=O)N3CC4CCCC3C4)nc2Cc2ccccc2)cc1 (centres unmarked) [Example R-26, 4-[3-(6-azabicyclo[3.2.1]oct-6-ylcarbonyl)-5-benzyl-1H-124-triazol-1-yl]bezenesulfonamide]	99	2.84	–
NS(=O)(=O)c1ccc(-n2nc(C(=O)N3CCCN(C=O)CC3)nc2Cc2ccccc2)cc1 [Example R-27, 4-(5-benzyl-3-[(4-formyl-14-diazepan-1-yl)carbonyl]-1H-124-triazol-1-yl)benzenesulfonamide]	99	–	–
CN(C(=O)c1nc(Cc2ccccc2)n(-c2ccc(S(N)(=O)=O)cc2)n1)C(C1CC1)C1CC1 [Example R-28, 1-[4-(aminosulfonyl)phenyl)-5-benzyl-N-(dicyclopropylmethyl)-N-methyl-1H-124-triazole-3-carboxamide]	99	–	–
CCCN(C(=O)c1nc(Cc2ccccc2)n(-c2ccc(S(N)(=O)=O)cc2)n1)[C@@H](C)CO [Example R-29, 1-[4-(aminosulfonyl)phenyl]-5-benzyl-N-[(1S)-2-hydroxy-1-methylethyl]-N-propyl-1H-124-triazole-3-carboxamide]	98	–	–
CN(C(=O)c1nc(Cc2ccccc2)n(-c2ccc(S(N)(=O)=O)cc2)n1)C1CCCC1 [Example R-30, 1-[4-(aminosulfonyl)phenyl]-5-benzyl-N-cyclopentyl-N-methyl-1H-124-triazole-3-carboxamide]	100	2.45	–
CC(C)CCN(C)C(=O)c1nc(Cc2ccccc2)n(-c2ccc(S(N)(=O)=O)cc2)n1 [Example R-31, 1-[4-(aminosulfonyl)phenyl]-5-benzyl-N-methyl-N-(3-methylbutyl)-1H-124-triazole-3-carboxamide]	100	3.03	–
NS(=O)(=O)c1ccc(-n2nc(C(=O)N3CCOCC3)nc2Cc2ccccc2)cc1 [Example R-32, 4-[5-benzyl-3-(morpholin-4-ylcarbonyl)-1H-124-triazol-1-yl]benzenesulfonamide]	98	3.56	–
NS(=O)(=O)c1ccc(-n2nc(C(=O)NC3Cc4ccccc4C3)nc2Cc2ccccc2)cc1 [Example R-33, 1-[4-(aminosulfonyl)phenyl]-5-benzyl-N-(23-dihydro-1H-inden-2-yl)-1H-124-triazole-3-carboxamide]	101	–	–
CCN(CCOC)C(=O)c1nc(Cc2ccccc2)n(-c2ccc(S(N)(=O)=O)cc2)n1 [Example R-34, 1-[4-(aminosulfonyl)phenyl]-5-benzyl-N-ethyl-N-(2-methoxyethyl)-1H-124-triazole-3-carboxamide]	99	2.99	–
NS(=O)(=O)c1ccc(-n2nc(C(=O)NCCNc3ccccn3)nc2Cc2ccccc2)cc1 [Example R-35, 1-[4-(aminosulfonyl)phenyl]-5-benzyl-N-[2-(pyridin-2-ylamino)ethyl]-1H-124-triazole-3-carboxamide]	101	–	–
CCCCN(CCC)C(=O)c1nc(Cc2ccccc2)n(-c2ccc(S(N)(=O)=O)cc2)n1 [Example R-36, 1-[4-(aminosulfonyl)phenyl]-5-benzyl-N-butyl-N-propyl-1H-124-triazole-3-carboxamide]	100	3.12	–
CCc1ccc(CN(C)C(=O)c2nc(Cc3ccccc3)n(-c3ccc(S(N)(=O)=O)cc3)n2)cc1 [Example R-37, 1-[4-(aminosulfonyl)phenyl]-5-benzyl-N-(4-ethylbenzyl)-N-methyl-1H-124-triazole-3-carboxamide]	99	2.89	–

Results, then the compound that gave them:

inhibition at 0.1 µM [%]	IC50 [nM]	inhibition at 0.01 µM [%]	Structure (SMILES)
100	3.13	–	Cc1ccc(CN(C)C(=O)c2nc(Cc3ccccc3)n(-c3ccc(S(N)(=O)=O)cc3)n2)cc1 [Example R-38, 1-[4-(aminosulfonyl)phenyl]-5-benzyl-N-methyl-N-(4-methylbenzyl)-1H-124-triazole-3-carboxamide]
97	3.62	–	CCN(CC)CCN(CC)C(=O)c1nc(Cc2ccccc2)n(-c2ccc(S(N)(=O)=O)cc2)n1 [Example R-39, 1-[4-(aminosulfonyl)phenyl]-5-benzyl-N-[2-(diethylamino)ethyl]-N-ethyl-1H-124-triazole-3-carboxamide]
98	3.34	–	CC(C)CN(CC(C)C)C(=O)c1nc(Cc2ccccc2)n(-c2ccc(S(N)(=O)=O)cc2)n1 [Example R-40, 1-[4-(aminosulfonyl)phenyl]-5-benzyl-NN-diisobutyl-1H-124-triazole-3-carboxamide]
99	–	–	CCN(CCC#N)C(=O)c1nc(Cc2ccccc2)n(-c2ccc(S(N)(=O)=O)cc2)n1 [Example R-41, 1[4-(aminosulfonyl)phenyl]-5-benzyl-N-(2-cyanoethyl)-N-ethyl-1H-124-triazole-3-carboxamide]
98	3.78	–	CN(CCOc1ccccc1)C(=O)c1nc(Cc2ccccc2)n(-c2ccc(S(N)(=O)=O)cc2)n1 [Example R-42, 1-[4-(aminosulfonyl)phenyl]-5-benzyl-N-methyl-N-(2-phenoxyethyl)-1H-124-triazole-3-carboxamide]
100	–	–	CCN(CCN(C)C)C(=O)c1nc(Cc2ccccc2)n(-c2ccc(S(N)(=O)=O)cc2)n1 [Example R-43, 1-[4-(aminosulfonyl)phenyl]-5-benzyl-N-[2-(dimethylamino)ethyl]-N-ethyl-1H-124-triazole-3-carboxamide]
–	–	93	CN(Cc1n[nH]c2c1CCCC2)C(=O)c1nc(Cc2ccccc2)n(-c2ccc(S(N)(=O)=O)cc2)n1 [Example R-44, 1-[4-(aminosulfonyl)phenyl]-5-benzyl-N-methyl-N-(4567-tetrahydro-1H-indazol-3-ylmethyl)-1H-124-triazole-3-carboxamide]
–	–	95	CC(C)N(CC(O)c1ccccc1)C(=O)c1nc(Cc2ccccc2)n(-c2ccc(S(N)(=O)=O)cc2)n1 (centres unmarked) [Example R-45, 1-[4-(aminosulfonyl)phenyl]-5-benzyl-N-(2-hydroxy-2-phenylethyl)-N-isopropyl-1H-124-triazole-3-carboxamide]
–	–	96	CC1(c2ccccc2)CN(C(=O)c2nc(Cc3ccccc3)n(-c3ccc(S(N)(=O)=O)cc3)n2)CCO1 (centres unmarked) [Example R-46, 4-{5-benzyl-3-[(2-methyl-2-phenylmorpholin-4-yl)carbonyl]-1H-124-triazol-1-yl}benzenesulfonamide]
–	–	90	C[C@@H]([C@@H](O)c1ccccc1)N(C)C(=O)c1nc(Cc2ccccc2)n(-c2ccc(S(N)(=O)=O)cc2)n1 [Example R-47, 1-[4-(aminosulfonyl)phenyl]-5-benzyl-N-[(1S2S)-2-hydroxy-1-methyl-2-phenylethyl]-N-methyl-1H-124-triazole-3-carboxamide]
–	–	97	CN(CCc1ccccc1)C(=O)c1nc(Cc2ccccc2)n(-c2ccc(S(N)(=O)=O)cc2)n1 [Example R-48, 1-[4-(aminosulfonyl)phenyl]-5-benzyl-N-methyl-N-(2-phenylethyl)-1H-124-triazole-3-carboxamide]
–	–	96	CN(Cc1nc2ccc(F)cc2[nH]1)C(=O)c1nc(Cc2ccccc2)n(-c2ccc(S(N)(=O)=O)cc2)n1 [Example R-49, 1-[4-(aminosulfonyl)phenyl]-5-benzyl-N-[(6-fluoro-1H-benzimidazol-2-yl)methyl]-N-methyl-1H-124-triazole-3-carboxamide]
